From patent US9815796B2 (Merck Sharp & Dohme Corp., priority 2013, dated 2017) come the findings set out here.

One experiment concerns the target human PDE2A1 (Homo sapiens (Human), UniProt O00408). In words: IMAP FP PDE selectivity panel, human PDE2A1. The class given is biochemical. The gist of the method:
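GST-tagged human PDE2A1 expressed in insect cells, run at room temperature for 60 min with 50 nM FAM-cAMP containing 1000 nM cGMP, pH 7.2 Tris/MgCl2 buffer. IMAP fluorescence polarization read after binding step.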

A further experiment has as its target Rhesus PDE2A3 (Macaca mulatta, UniProt B3VTJ2). Put plainly: PDE2 fluorescence polarization (IMAP FP) inhibition assay, rhesus enzyme. The class given is biochemical, rhesus macaque. The gist of the method:
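Rhesus PDE2A3 came from lysate of transiently transfected AD293 cells, diluted to give 20% substrate conversion. Substrate was 50 nM FAM-cAMP with 1 uM cGMP activator in Tris pH 7.2/MgCl2 buffer, run 60 min at room temperature over 10-point 3-fold dilutions in 1% DMSO. Read-out was IMAP fluorescence polarization (mP) after ≥1 h binding.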

Setting [1] is: Human PDE2, Lab A, read-out: Human PDE2 Ki (nM) - Lab A.
Setting [2] is: Rhesus PDE2, Lab A, read-out: Rhesus PDE2 Ki (nM) - Lab A.
[3] abbreviates: Human PDE2, Lab B, read-out: Human PDE2 Ki (nM) - Lab B.
The mark [4] stands for this setting: Rhesus PDE2, Lab B, read-out: Rhesus PDE2 Ki (nM) - Lab B.

Read-outs that look alike come from different tables or passages of the source.

human PDE2A1, sequence (O00408 other isoform, or with tags, fused parts or gaps): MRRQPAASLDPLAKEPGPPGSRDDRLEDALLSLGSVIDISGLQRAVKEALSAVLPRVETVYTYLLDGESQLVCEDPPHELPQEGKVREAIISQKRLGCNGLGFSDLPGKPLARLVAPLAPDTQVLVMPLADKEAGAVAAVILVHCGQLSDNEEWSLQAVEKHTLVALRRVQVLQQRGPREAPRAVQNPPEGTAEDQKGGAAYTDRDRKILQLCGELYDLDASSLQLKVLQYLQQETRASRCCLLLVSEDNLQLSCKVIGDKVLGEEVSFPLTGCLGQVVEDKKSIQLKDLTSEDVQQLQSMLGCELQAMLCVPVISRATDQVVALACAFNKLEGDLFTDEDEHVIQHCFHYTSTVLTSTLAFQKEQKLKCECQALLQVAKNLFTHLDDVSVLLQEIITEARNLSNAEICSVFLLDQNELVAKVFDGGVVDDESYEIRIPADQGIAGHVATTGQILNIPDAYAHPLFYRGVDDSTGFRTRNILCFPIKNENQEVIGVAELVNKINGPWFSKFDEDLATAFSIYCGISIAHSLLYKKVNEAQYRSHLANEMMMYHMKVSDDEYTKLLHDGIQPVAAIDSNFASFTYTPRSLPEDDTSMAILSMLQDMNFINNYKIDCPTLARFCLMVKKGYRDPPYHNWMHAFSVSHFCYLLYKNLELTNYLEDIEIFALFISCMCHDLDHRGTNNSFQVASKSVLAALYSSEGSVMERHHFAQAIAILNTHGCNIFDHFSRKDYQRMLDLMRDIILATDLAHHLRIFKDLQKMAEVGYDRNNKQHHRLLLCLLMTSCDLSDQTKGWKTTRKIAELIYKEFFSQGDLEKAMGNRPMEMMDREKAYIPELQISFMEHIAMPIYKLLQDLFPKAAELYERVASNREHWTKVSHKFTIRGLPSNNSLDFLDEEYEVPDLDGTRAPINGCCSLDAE
Rhesus PDE2A3, sequence (B3VTJ2 1-941): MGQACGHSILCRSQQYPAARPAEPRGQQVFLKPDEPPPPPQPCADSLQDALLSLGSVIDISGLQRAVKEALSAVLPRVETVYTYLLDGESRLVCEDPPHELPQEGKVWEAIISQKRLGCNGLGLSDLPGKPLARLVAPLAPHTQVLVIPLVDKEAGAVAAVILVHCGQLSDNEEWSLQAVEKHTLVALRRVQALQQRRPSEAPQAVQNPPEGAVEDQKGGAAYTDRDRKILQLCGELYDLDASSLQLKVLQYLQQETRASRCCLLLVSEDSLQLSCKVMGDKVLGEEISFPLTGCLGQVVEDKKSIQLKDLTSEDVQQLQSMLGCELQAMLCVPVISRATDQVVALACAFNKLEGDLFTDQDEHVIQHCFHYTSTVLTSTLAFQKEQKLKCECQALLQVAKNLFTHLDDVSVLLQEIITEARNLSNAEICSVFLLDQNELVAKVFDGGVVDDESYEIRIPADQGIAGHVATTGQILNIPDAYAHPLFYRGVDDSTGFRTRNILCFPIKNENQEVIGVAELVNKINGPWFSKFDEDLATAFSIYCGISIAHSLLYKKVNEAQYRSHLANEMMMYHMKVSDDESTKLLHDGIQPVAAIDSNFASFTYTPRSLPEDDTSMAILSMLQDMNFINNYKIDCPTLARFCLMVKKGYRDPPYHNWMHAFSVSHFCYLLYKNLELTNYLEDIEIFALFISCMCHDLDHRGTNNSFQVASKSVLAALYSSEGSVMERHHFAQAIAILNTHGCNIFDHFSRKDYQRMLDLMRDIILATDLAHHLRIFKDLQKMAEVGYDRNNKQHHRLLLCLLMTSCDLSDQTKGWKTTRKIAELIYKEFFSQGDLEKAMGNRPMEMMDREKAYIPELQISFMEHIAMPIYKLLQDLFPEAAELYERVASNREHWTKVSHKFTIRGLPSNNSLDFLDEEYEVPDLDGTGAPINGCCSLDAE

In general, Ki refers to a dissociation constant, usually derived from enzyme kinetics or from competition with a known ligand. `COCc1nc(C(=O)N[C@H](C)c2ccc(OC(F)(F)F)cc2)cc(=O)[nH]1` [Example 113, 2-(methoxymethyl)-6-oxo-N-{(1R)-1-[4-(trifluoromethoxy)phenyl]ethyl}-1,6-dihydropyrimidine-4-carboxamide]: the Ki amounted to 16 nM at human PDE2A1 (setting [1]) and 84 nM on Rhesus PDE2A3 (setting [2]).
As for `CC1([C@@H](NC(=O)c2cc(=O)[nH]c(C3CC3)n2)c2ccc(OC(F)F)cc2)CC1` [Example 443, 2-cyclopropyl-N-[(1R)-[4-(difluoromethoxy)phenyl](1-methylcyclopropyl)methyl]-6-oxo-1,6-dihydropyrimidine-4-carboxamide], the Ki is 7 nM at human PDE2A1 (setting [3]) and 8 nM at Rhesus PDE2A3 (setting [4]).
For the compound `Cc1nc(C(=O)N[C@H](C)c2ccc(C(F)(F)F)c(F)c2)cc(=O)[nH]1` [Example 20, N-{(1R)-1-[3-fluoro-4-(trifluoromethyl)phenyl]ethyl}-2-methyl-6-oxo-1,6-dihydropyrimidine-4-carboxamide], the Ki on human PDE2A1 (setting [1]) worked out at 24 nM; on Rhesus PDE2A3 (setting [2]), 25 nM.
Consider `CC1(C(NC(=O)c2cc(=O)[nH]c(-c3ccccc3)n2)c2ccc(SC(F)(F)F)c(F)c2)CC1` (single isomer, unassigned) [Example 707, (R)- or (S)-N-((3-fluoro-4-((trifluoromethyl)thio)phenyl)(1-methylcyclopropyl)methyl)-6-oxo-2-phenyl-1,6-dihydropyrimidine-4-carboxamide], for which the figures for the Ki at human PDE2A1 (setting [3]) and at Rhesus PDE2A3 (setting [4]) were 7.7 nM and 8.3 nM, respectively.
Consider `O=C(NC(CO)c1ccc(C(F)(F)F)cc1)c1cc(=O)[nH]c(-c2ccccc2)n1` (stereo not drawn) [Example 185, N-{2-hydroxy-1-[4-(trifluoromethyl)phenyl]ethyl}-6-oxo-2-phenyl-1,6-dihydropyrimidine-4-carboxamide], for which the Ki on human PDE2A1 (setting [1]) was determined as 9.7 nM; at Rhesus PDE2A3 (setting [2]) it was 13 nM.
As for `CC(C)(NC(=O)c1cc(=O)[nH]c(C2CC2)n1)c1ccc(SC(F)(F)F)c(F)c1` [Example 266, 2-cyclopropyl-N-(1-{3-fluoro-4-[(trifluoromethyl)sulfanyl]phenyl}-1-methylethyl)-6-oxo-1,6-dihydropyrimidine-4-carboxamide], the Ki at human PDE2A1 (setting [1]) is 65 nM; at Rhesus PDE2A3 (setting [2]), 86 nM.
As for `CC(C)(C)[C@@H](NC(=O)c1cc(=O)[nH]c(C2CC2)n1)c1ccc(C2CC2)c(F)c1` [Example 435, 2-cyclopropyl-N-[(1R)-1-(4-cyclopropyl-3-fluorophenyl)-2,2-dimethylpropyl]-6-oxo-1,6-dihydropyrimidine-4-carboxamide], the Ki came out at 0.78 nM at human PDE2A1 (setting [3]) and 1.1 nM on Rhesus PDE2A3 (setting [4]).
Take `CC(C)c1nc(C(=O)N[C@H](C)c2ccc(C(F)(F)F)cc2)cc(=O)[nH]1` [Example 137, 2-(1-methylethyl)-6-oxo-N-{(1R)-1-[4-(trifluoromethyl)phenyl]ethyl}-1,6-dihydropyrimidine-4-carboxamide]: the Ki on human PDE2A1 (setting [1]) was 231 nM; on Rhesus PDE2A3 (setting [2]) it was 411 nM.
Turning to `O=C(N[C@@H](c1ccc(C(F)(F)F)c(F)c1)C1CC1)c1cc(=O)[nH]c(-c2ncccn2)n1` [Example 91, N-{(R)-cyclopropyl[3-fluoro-4-(trifluoromethyl)phenyl]methyl}-6-oxo-1,6-dihydro-2,2′-bipyrimidine-4-carboxamide], the Ki at human PDE2A1 (setting [1]) was around 9.8 nM; on human PDE2A1 (setting [3]), 33 nM; at Rhesus PDE2A3 (setting [2]), 34 nM; at Rhesus PDE2A3 (setting [4]) it was 28 nM.
Consider `O=C(N[C@@H](c1ccc(OC(F)(F)F)c(F)c1)C1CC1)c1cc(=O)[nH]c(-c2ncccn2)n1` [Example 93, N-{(R)-cyclopropyl[3-fluoro-4-(trifluoromethoxy)phenyl]methyl}-6-oxo-1,6-dihydro-2,2′-bipyrimidine-4-carboxamide], for which the Ki on human PDE2A1 (setting [1]) was 9.6 nM; on Rhesus PDE2A3 (setting [2]) it was 35 nM.
The matching figures for `CSCC(NC(=O)c1cc(=O)[nH]c(C)n1)c1ccc(C(F)(F)F)cc1` (stereo not drawn) [Example 131, 2-methyl-N-{2-(methylsulfanyl)-1-[4-(trifluoromethyl)phenyl]ethyl}-6-oxo-1,6-dihydropyrimidine-4-carboxamide]: 123 nM and 170 nM.
`O=C(NCc1ccc(-c2ccccc2)cc1)c1cc(=O)[nH]c(-c2ccccc2)n1` [Example 372, N-(biphenyl-4-ylmethyl)-6-oxo-2-phenyl-1,6-dihydropyrimidine-4-carboxamide]: the figures for the Ki on human PDE2A1 (setting [3]) and on Rhesus PDE2A3 (setting [2]) were around 661 nM and around 149 nM, respectively.
For the compound `C[C@@H](NC(=O)c1cc(=O)[nH]c(C2CC2)n1)c1ccc(C(F)(F)F)cc1F` [Example 237, 2-cyclopropyl-N-{(1R)-1-[2-fluoro-4-(trifluoromethyl)phenyl]ethyl}-6-oxo-1,6-dihydropyrimidine-4-carboxamide], the Ki at human PDE2A1 (setting [1]) amounted to 35 nM; at Rhesus PDE2A3 (setting [2]), 61 nM.
For the compound `Cc1nc(C(=O)N[C@@H](c2ccc(C(F)(F)F)c(F)c2)C2(C)CC2)cc(=O)[nH]1` [Example 613, N-[(R)-[3-fluoro-4-(trifluoromethyl)phenyl](1-methylcyclopropyl)methyl]-2-methyl-6-oxo-1,6-dihydropyrimidine-4-carboxamide], the Ki on human PDE2A1 (setting [3]) is 12 nM; at Rhesus PDE2A3 (setting [4]), 13 nM.
For `Cc1nc(C(=O)N[C@@H](c2ccc(C(F)(F)F)c(F)c2)C2CC2)cc(=O)[nH]1` [Example 68, N-{(R)-cyclopropyl[3-fluoro-4-(trifluoromethyl)phenyl]methyl}-2-methyl-6-oxo-1,6-dihydropyrimidine-4-carboxamide], the values for the Ki at human PDE2A1 (setting [1]) and on Rhesus PDE2A3 (setting [2]) were 17 nM and 26 nM, respectively.
As for `C[C@@H](NC(=O)c1cc(=O)[nH]c(Cc2ccc(F)cc2)n1)c1ccc(C(F)(F)F)cc1` [Example 132, 2-(4-fluorobenzyl)-6-oxo-N-{(1R)-1-[4-(trifluoromethyl)phenyl]ethyl}-1,6-dihydropyrimidine-4-carboxamide], the Ki on human PDE2A1 (setting [1]) amounted to 24 nM; at Rhesus PDE2A3 (setting [2]) it was 34 nM.
In the case of `Cc1nc(C(=O)N[C@@H](c2ccc(S(F)(F)(F)(F)F)cc2)C(C)C)cc(=O)[nH]1` [Example 52, 2-methyl-N-{(1R)-2-methyl-1-[4-(pentafluoro-λ^6-sulfanyl)phenyl]propyl}-6-oxo-1,6-dihydropyrimidine-4-carboxamide], the Ki on human PDE2A1 (setting [3]) stood at 6.4 nM; on Rhesus PDE2A3 (setting [2]), 5.1 nM; on Rhesus PDE2A3 (setting [4]), 6 nM.
Consider `COc1ccc(Cc2nc(C(=O)N[C@H](C)c3ccc(C(F)(F)F)cc3)cc(=O)[nH]2)cc1` [Example 136, 2-(4-methoxybenzyl)-6-oxo-N-{(1R)-1-[4-(trifluoromethyl)phenyl]ethyl}-1,6-dihydropyrimidine-4-carboxamide], for which the results for the Ki at human PDE2A1 (setting [1]) and at Rhesus PDE2A3 (setting [2]) were 2.2 nM and 6.3 nM, respectively.
Regarding `COc1ccc(Cc2nc(C(=O)N[C@@H](c3ccc(C(F)(F)F)cc3)C(C)(C)C)cc(=O)[nH]2)cc1` [Example 455, N-{(1R)-2,2-dimethyl-1-[4-(trifluoromethyl)phenyl]propyl}-2-(4-methoxybenzyl)-6-oxo-1,6-dihydropyrimidine-4-carboxamide], the Ki stood at 0.6 nM at human PDE2A1 (setting [3]) and 0.68 nM on Rhesus PDE2A3 (setting [4]).
In the same order, the values of `Cc1nc(C(=O)N[C@@H](c2ccc(C(C)C)cc2)C2(C)CC2)cc(=O)[nH]1` [Example 427, 2-methyl-N-{(R)-(1-methylcyclopropyl)[4-(1-methylethyl)phenyl]methyl}-6-oxo-1,6-dihydropyrimidine-4-carboxamide] are 3.7 nM and 3.7 nM.
Regarding `CC[C@@H](NC(=O)c1cc(=O)[nH]c(-c2ccccc2)n1)c1ccc(SC(F)(F)F)cc1` [Example 151, 6-oxo-2-phenyl-N-[(1R)-1-{4-[(trifluoromethyl)sulfanyl]phenyl}propyl]-1,6-dihydropyrimidine-4-carboxamide], the Ki at human PDE2A1 (setting [1]) is 3.2 nM; on Rhesus PDE2A3 (setting [2]) it was 3.3 nM.
As for `COc1ccc(Cc2nc(C(=O)N[C@@H](c3ccc(OC(F)(F)F)c(F)c3)C3CC3)cc(=O)[nH]2)cc1` [Example 478, N-{(R)-cyclopropyl[3-fluoro-4-(trifluoromethoxy)phenyl]methyl}-2-(4-methoxybenzyl)-6-oxo-1,6-dihydropyrimidine-4-carboxamide], the Ki at human PDE2A1 (setting [3]) came out at 1.7 nM; on Rhesus PDE2A3 (setting [4]) it was 2.1 nM.
In the same order, the values of `Cc1nc(C(=O)N[C@@H](c2ccc(C3CC3)c(F)c2)C2CC2)cc(=O)[nH]1` [Example 426, N-[(R)-cyclopropyl(4-cyclopropyl-3-fluorophenyl)methyl]-2-methyl-6-oxo-1,6-dihydropyrimidine-4-carboxamide] are 9.5 nM and 9.1 nM.
With `COc1ccc(Cc2nc(C(=O)N[C@@H](c3ccc(SC(F)(F)F)cc3)C(C)C)cc(=O)[nH]2)cc1` [Example 469, 2-(4-methoxybenzyl)-N-[(1R)-2-methyl-1-{4-[(trifluoromethyl)sulfanyl]phenyl}propyl]-6-oxo-1,6-dihydropyrimidine-4-carboxamide], the values for the Ki on human PDE2A1 (setting [3]) and on Rhesus PDE2A3 (setting [4]) were 0.91 nM and 0.96 nM, respectively.
For the compound `C[C@@H](NC(=O)c1nc[nH]c(=O)c1C1CCC1)c1ccc(C(F)(F)F)cc1` [Example 334, (R)-5-cyclobutyl-6-oxo-N-(1-(4-(trifluoromethyl)phenyl)ethyl)-1,6-dihydropyrimidine-4-carboxamide], the Ki at human PDE2A1 (setting [1]) was determined as 2370 nM; at Rhesus PDE2A3 (setting [2]) it was 2830 nM.
In the case of `Cc1nc(C(=O)N[C@H](C)c2ccc(C(F)(F)F)cc2)cc(=O)[nH]1` [Example 13, 2-methyl-6-oxo-N-{(1R)-1-[4-(trifluoromethyl)phenyl]ethyl}-1,6-dihydropyrimidine-4-carboxamide], the Ki on human PDE2A1 (setting [1]) was 33 nM; on human PDE2A1 (setting [3]), 48 nM; on Rhesus PDE2A3 (setting [2]), 50 nM; on Rhesus PDE2A3 (setting [4]), 48 nM.
